Reference: US20240376073A1 (Hoffmann-La Roche Inc., priority 2021, published 2024)
Structures can show the parent of a compound that is named as a salt. Where two headings read alike, the source gives them in different places.

Test system: Acinetobacter baumannii ATCC17961
Assay: Antimicrobial susceptibility testing: 90% growth inhibitory concentration (IC90) determination
Format: cell-based
Settings: Iso-Sensitest broth, growth by OD 600 nm over 16 h, 35±2° C.
In short: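 Twofold serial dilutions (e.g. 50 to 0.097 μM final) in Iso-Sensitest broth, inoculated at ~5×10^(5) CFU/ml, incubated at 35±2° C. OD600 read every 20 min over 16 h; IC90 derived from growth inhibition during logarithmic growth.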

[1] = Acinetobacter baumannii ATCC17961, read-out: ATCC 17961 IC90
[2] = Acinetobacter baumannii, ATCC17961, 16 h, read-out: ATCC 17961 IC90, Acinetobacter baumannii ATCC17961

COc1ccc(-c2cnc(C(=O)Nc3ccc(C(=O)N4CCN(C(=O)C[N+](C)(C)CC(N)=O)CC4)c(Cl)c3)n2C)c(F)c1F [Example B7, (2-amino-2-oxo-ethyl)-[2-[4-[2-chloro-4-[[5-(2,3-difluoro-4-methoxy-phenyl)-1-methyl-imidazole-2-carbonyl]amino]benzoyl]piperazin-1-yl]-2-oxo-ethyl]-dimethyl-ammonium; formate]
IC90 [1]: 0.099 µM

COc1ccc(-c2cnc(C(=O)Nc3ccc(C(=O)N4CCN(C(=O)[C@@H]5C=CC[N+]5(C)C)CC4)c(Cl)c3)n2C)c(F)c1F [Example B49, N-[3-chloro-4-[4-[(2S)-1,1-dimethyl-2,5-dihydropyrrol-1-ium-2-carbonyl]piperazine-1-carbonyl]phenyl]-5-(2,3-difluoro-4-methoxy-phenyl)-1-methyl-imidazole-2-carboxamide formate]
IC90 [2]: 0.12 µM

COc1ccc(-c2cnc(C(=O)Nc3ccc(C(=O)N4CCN(C(=O)CCC[N+](C)(CCCN)CC(=O)O)CC4)c(Cl)c3)n2C)c(F)c1F (stereo not shown) [Example C35, 3-aminopropyl-(carboxymethyl)-[4-[4-[2-chloro-4-[[5-(2,3-difluoro-4-methoxy-phenyl)-1-methyl-imidazole-2-carbonyl]amino]beuzoyl]piperazin-1-yl]-4-oxo-butyl]-methyl-ammonium formate]
IC90 [2]: 0.51 µM

COc1ccc(-c2cnc(C(=O)Nc3ccc(C(=O)NC4CN(C(=O)C[N+](C)(C)CC(N)=O)C4)c(Cl)c3)n2C)c(F)c1F [Example B6, (2-amino-2-oxo-ethyl)-[2-[3-[[2-chloro-4-[[5-(2,3-difluoro-4-methoxy-phenyl)-1-methyl-imidazole-2-carbonyl]amino]benzoyl]aminoJazetidin-1-yl]-2-oxo-ethyl]-dimethyl-ammonium; formate]
IC90 [1]: 0.29 µM

Cn1c(-c2ccc(OCC#N)c(F)c2F)cnc1C(=O)Nc1ccc(C(=O)NCCOCC[N+](C)(C)CC(N)=O)c(Cl)c1 [Example A13, (2-amino-2-oxo-ethyl)-[2-[2-[[2-chloro-4-[[5-[4-(cyanomethoxy)-2,3-difluoro-phenyl]-1-methyl-imidazole-2-carbonyl]amino]benzoyl]amino]ethoxy]ethyl]-dimethyl-ammonium formate]
IC90 [1]: 0.64 µM

COc1ccc(-c2cnc(C(=O)Nc3ccc(C(=O)NCc4cnn(CC5C[N+](C)(C)C5)c4)c(Cl)c3)n2C)c(F)c1F [Example C22, N-[3-chloro-4-[[1-[(1,1-dimethylazetidin-1-ium-3-yl)methyl]pyrazol-4-yl]methylcarbamoyl]phenyl]-5-(2,3-difluoro-4-methoxy-phenyl)-1-methyl-imidazole-2-carboxamide;formate]
IC90 [1]: 0.23 µM

Cn1c(-c2ccc(OC(F)F)c(F)c2Cl)cnc1C(=O)Nc1ccc(C(=O)N2CCN(C(=O)C3CC[N+](C)(CCN)CC3)CC2)c(Cl)c1 (stereo not shown) [Example C12, N-[4-[4-[1-(2-aminoethyl)-1-methyl-piperidin-1-ium-4-carbon-yl]piperazine-1-carbonyl]-3-chloro-phenyl]-5-[2-chloro-4-(difluorometh-oxy)-3-fluoro-phenyl]-1-methyl-imidazole-2-carboxamide; formic acid; formate]
IC90 [1]: 0.043 µM

COc1ccc(-c2cnc(C(=O)Nc3ccc(C(=O)NCc4cn(CCOCCO)[n+](C)c4)c(Cl)c3)n2C)c(F)c1F [Example A26, N-[3-chloro-4-[1-[2-(2-hydroxyethoxy)ethyl]-2-methyl-pyrazol-2-ium-4-yl]methylcarbamoyl]phenyl]-5-(2,3-difluoro-4-methoxy-phenyl)-1-methyl-imidazole-2-carboxamide; formate]
IC90 [1]: 0.41 µM

COc1ccc(-c2cnc(C(=O)Nc3ccc(C(=O)NCc4cnc(NC(=O)C5CC[N+](C)(C)CC5)s4)c(Cl)c3)n2C)c(F)c1F [Example A29, N-[5-[2-chloro-4-[[5-(2,3-difluoro-4-methoxy-phenyl)-1-methyl-imidazole-2-carbonyl]amino]benzoyl]amino]methyl]thiazol-2-yl]-1,1-dimethyl-piperidin-1-ium-4-carboxamide; formate]
IC90 [1]: 0.17 µM

Cn1c(-c2ccc(OCC#N)c(F)c2F)cnc1C(=O)Nc1ccc(C(=O)N2CCC(C(=O)N3CC([N+](C)(C)C)C3)CC2)c(Cl)c1 [Example B31, [1-[1-[2-chloro-4-[[5-[4-(cyanomethoxy)-2,3-difluoro-phenyl]-1-methyl-imidazole-2-carbonyl]amino]benzoyl]piperidine-4-carbonyl]azetidin-3-yl]-trimethyl-ammonium; formate]
IC90 [1]: 0.25 µM

Cn1c(-c2ccc(OC(F)F)c(F)c2F)cnc1C(=O)Nc1ccc(C(=O)N2CCN(C(=O)C[N+](C)(C)C)CC2)c(Cl)c1 [Example B12, [2-[4-[2-chloro-4-[[5-[4-(difluoromethoxy)-2,3-difluoro-phenyl]-1-methyl-imidazole-2-carbonyl]amino]benzoyl]piperazin-1-yl]-2-oxo-ethyl]-trimethyl-ammonium; formate]
IC90 [1]: 0.051 µM

COc1ccc(-c2cnc(C(=O)Nc3ccc(C(=O)NCc4cnc(NC(=O)C5CCC[N+]5(C)C)s4)c(Cl)c3)n2C)c(F)c1F (stereo not shown) [Example A28, N-[3-chloro-4-[2-[(1,1-dimethylpyrrolidin-1-ium-2-carbonyl)amino]thiazol-5-yl]methylcarbamoyl]phenyl]-5-(2,3-difluoro-4-methoxy-phenyl)-1-methyl-imidazole-2-carboxamide; formate]
IC90 [1]: 0.088 µM

COc1ccc(-c2cnc(C(=O)Nc3ccc(C(=O)N4CCC(NC(=O)[C@@H]5C[C@@H](O)C[N+]5(C)C)CC4)c(Cl)c3)n2C)c(F)c1F [Example C43, N-[3-chloro-4-[4-[[(2S,4R)-4-hydroxy-1,1-dimethyl-pyrrolidin-1-ium-2-carbonyl]amino]piperidine-1-carbonyl]phenyl]-5-(2,3-difluoro-4-methoxy-phenyl)-1-methyl-imidazole-2-carboxamide;formate]
IC90 [1]: 0.29 µM

Cn1c(-c2ccc(OCC#N)c(F)c2F)cnc1C(=O)Nc1ccc(C(=O)NCCCNC(=O)C[N+](C)(C)C)c(Cl)c1 [Example A12, [2-[3-[[2-chloro-4-[[5-[4-(cyanomethoxy)-2,3-difluoro-phenyl]-1-methyl-imidazole-2-carbonyl]amino]benzoyl]amino]propylamino]-2-oxo-ethyl]-trimethyl-ammonium formate]
IC90 [1]: 0.35 µM

Cn1c(-c2ccc(OC(F)F)c(F)c2Cl)cnc1C(=O)Nc1ccc(C(=O)N2CCN(C(=O)C3CC[N+](CC(N)=O)(CC4CNC4)CC3)CC2)c(Cl)c1 (stereo not shown) [Example C10]
IC90 [2]: 0.1 µM

COc1ccc(-c2cnc(C(=O)Nc3ccc(C(=O)N4CCN(C(=O)N5C[C@@H]6C[N+](CCCN)(CC(=O)O)C[C@@H]6C5)CC4)c(Cl)c3)n2C)c(F)c1F (stereo partly shown) [Example C37, hydrochloride]
IC90 [2]: 0.34 µM

CCc1cc(NC(=O)c2ncc(-c3ccc(OC(F)F)c(F)c3F)n2C)ccc1C(=O)N1CCN(C(=O)C2CC[N+](C)(CC3CCNCC3)CC2)CC1 (stereo not shown) [Example C20, 5-[4-(difluoro-methoxy)-2,3-difluoro-phenyl]-N-[3-ethyl-4-[4-[1-methyl-1-(4-piperidylmethyl)-piperidin-1-ium-4-carbonyl]-piperazine-1-carbonyl]phenyl]-1-methyl-imid-azole-2-carbox-amide; 2,2,2-trifluoroacetate; 2,2,2-trifluoro-acetic acid]
IC90 [1]: 0.08 µM

Cn1c(-c2ccc(OC(F)F)c(F)c2F)cnc1C(=O)Nc1ccc(C(=O)N2CCN(C(=O)C3CC[N+](C)(CC(=O)O)CC3)CC2)c(Cl)c1 (stereo not shown) [Example C31, 2-[4-[4-[2-chloro-4-[[5-[4-(difluorometh-oxy)-2,3-difluoro-phen-yl]-1-methyl-imidazole-2-carbonyl]amino]-benzoyl]piper-azine-1-carbon-yl]-1-methyl-piperidin-1-ium-1-yl]acetic acid; 2,2,2-trifluoro-acetate]
IC90 [1]: 0.41 µM

Cn1c(-c2ccc(OCF)c(F)c2Cl)cnc1C(=O)Nc1ccc(C(=O)N2CCN(C(=O)C3CC[N+](CC(=O)O)(CC4CNC4)CC3)CC2)c(Cl)c1 (stereo not shown) [Example C41, 2-[1-(azetidin-3-ylmethyl)-4-[4-[2-chloro-4-[[5-[2-chloro-3-fluoro-4-(fluoromethoxy)phenyl]-1-methyl-imidazole-2-carbonyl]amino]benzoyl]piperazine-1-carbonyl]piperidin-1-ium-1-yl]acetic acid formate]
IC90 [2]: 0.48 µM

COc1ccc(-c2cnc(C(=O)Nc3ccc(C(=O)NCc4cnc(NC(=O)C5CC[N+](C)(CC(N)=O)CC5)s4)c(Cl)c3)n2C)c(F)c1F (stereo not shown) [Example A30, 1-(2-amino-2-oxo-ethyl)-N-[5-[[[2-chloro-4-[[5-(2,3-difluoro-4-methoxy-phenyl)-1-methyl-imidazole-2-carbonyl]amino]benzoyl]amino]methyl]thiazol-2-yl]-1-methyl-piperidin-1-ium-4-carboxamide; formate]
IC90 [1]: 0.14 µM

Cn1c(-c2ccc(OC(F)F)c(F)c2F)cnc1C(=O)Nc1ccc(C(=O)N2CCN(C(=O)C[N+]3(C)CCCC3)CC2)c(Cl)c1 [Example C25, N-[3-chloro-4-[4-[2-(1-methyl-pyrrolidin-1-ium-1-yl)acetyl]piper-azine-1-carbonyl]-phenyl]-5-[4-(difluorometh-oxy)-2,3-difluoro-phenyl]-1-methyl-imidazole-2-carboxamide; formate]
IC90 [1]: 0.043 µM

COc1ccc(-c2cnc(C(=O)Nc3ccc(C(=O)NCc4cn(CCO)[n+](C)c4)c(Cl)c3)n2C)c(F)c1F [Example A20, N-[3-chloro-4-[[1-(2-hydroxyethyl)-2-methyl-pyrazol-2-ium-4-yl]methylcarbamoyl]phenyl]-5-(2,3-difluoro-4-methoxy-phenyl)-1-methyl-imidazole-2-carboxamide;formate]
IC90 [1]: 0.32 µM
